Laboratory results from patent US4469706A, “Selective beta-2 adrenergic antagonists for the treatment of glaucoma” (priority 1982, dated 1984).
Counter-ions that a name gives are not always drawn. Like-named read-outs stand apart in the source and are kept apart here.

Tests used:
[1] = biological target: T1, rabbit ciliary process adenylate cyclase (Oryctolagus cuniculus, UniProt G1TAV7); assay: Rabbit ciliary process beta-adrenergic sensitive adenylate cyclase activity; type: biochemical; conditions: for Ki: antagonists, inhibition of isoproterenol-stimulated activity, Table I, read-out: Adenylate Cyclase Ki, Ciliary Process Rabbit (B)
T1 construct: After isolation of the ciliary process, adenylate cyclase activity was measured; from tissue; host or cells: rabbit ciliary process

[2] = biological target: T2, beta-adrenergic sensitive adenylate cyclase present in mammalian choroid plexus (Felis catus, UniProt Q9TST5); assay: Choroid plexus adenylate cyclase activity; type: biochemical
T2 construct: are prepared from the various tissues to be studied (e.g., ciliary process, choroid plexus, heart or lung); from tissue; host or cells: choroid plexus (homogenate or washed particulate)

heart adenylate cyclase [3] = assay: Heart adenylate cyclase activation and inhibition; type: biochemical, mammalian; conditions: antagonists; Table I; ** data from the present inventor, method (a); read-out: Adenylate Cyclase Ki, Heart (G)
[4] = system: rabbit ciliary process adenylate cyclase; assay: Rabbit ciliary process beta-adrenergic sensitive adenylate cyclase activity; type: biochemical; conditions: Table I columns B (rabbit ciliary process) and G
[5] = biological target: beta1 -adrenergic receptor present in mammalian heart; conditions: Table I; Minneman et al; read-out: Kd for IHYP Binding, Heart (E); cited from earlier work
heart adenylate cyclase [6] = biological target: T3, heart adenylate cyclase (Rattus norvegicus, UniProt P18090); conditions: agonists; Table I; Minneman et al; NE = no effect as agonist; cited from earlier work
T3 construct: are prepared from the various tissues to be studied (e.g., ciliary process, choroid plexus, heart or lung); from tissue; host or cells: heart (homogenate or washed particulate)

[7] = biological target: T4, human ciliary process beta-adrenergic receptors (Homo sapiens, UniProt P07550); assay: biochemical
T4 construct: ciliary process from human donor eyes was assayed biochemically; from tissue; host or cells: ciliary process from human donor eyes

[8] = system: intraocular pressure in rabbit eyes
[9] = system: cardioacceleratory effect of isoproterenol; conditions: subcutaneous antagonist 30 minutes before 3 micrograms/kg subcutaneous isoproterenol; rabbits
[10] = system: intraocular pressure above normal; assay: Alpha chymotrypsin-induced glaucoma in rabbits; type: in vivo, rabbit; conditions: compared with timolol
Description: This effect is also observed under conditions of elevated pressure.

[11] = system: ciliary body adenylate cyclase; assay: Ciliary body adenylate cyclase stimulation; type: biochemical
Description: (§1) The discovery that the ciliary process of the mammalian eye contains β2 -adrenergic receptors is based on the technique of measuring adenylate cyclase, an enzyme which synthesizes cyclic AMP from ATP. It has been established that receptor binding of beta adrenergic agonists is associated with a concomitant activation of adenylate cyclase. (Robison, G. A., et al, Cyclic AMP, Academic Press, New York, 1971, and Wolfe, B. B., et al, Annual Reviews of Pharmacology and Toxicology, 17:575-604 (1977)). […] Beta adrenergic sensitive adenylate cyclase activity was thus identified and characterized in the ocular tissues of several mammalian species such as rabbits, cats, dogs, monkeys and humans. After isolation of the ciliary process, adenylate cyclase activity was measured, and its activation by agonists or inhibition by antagonists was measured. […].
(§2) For ciliary body, maximal stimulation was 15% of the stimulation seen in the ciliary process, and for iris, maximal stimulation was 22% for that seen in the ciliary process. […];

iris adenylate cyclase = assay: Iris adenylate cyclase stimulation; type: biochemical
Description: as §1, §2

[12] = antagonists, Table I, read-out: Adenylate Cyclase Ki, Choroid Plexus (C)
[13] = 0.5% topical to ipsilateral eye
[14] = 0.5% topical, two 50 microliter doses, 2 and 3 hours after application

T1 sequence (G1TAV7 1-437): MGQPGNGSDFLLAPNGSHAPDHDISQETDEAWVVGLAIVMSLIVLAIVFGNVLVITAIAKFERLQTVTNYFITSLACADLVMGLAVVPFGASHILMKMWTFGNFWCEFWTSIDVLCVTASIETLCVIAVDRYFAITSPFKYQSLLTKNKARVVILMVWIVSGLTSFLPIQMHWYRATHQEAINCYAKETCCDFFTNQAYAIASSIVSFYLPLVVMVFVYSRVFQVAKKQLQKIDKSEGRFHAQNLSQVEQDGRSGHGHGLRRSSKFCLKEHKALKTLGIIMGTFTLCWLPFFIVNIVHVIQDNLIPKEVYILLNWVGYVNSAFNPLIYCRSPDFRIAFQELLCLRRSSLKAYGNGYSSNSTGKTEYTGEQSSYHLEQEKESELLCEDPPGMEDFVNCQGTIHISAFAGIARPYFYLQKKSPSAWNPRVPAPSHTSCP
T4 sequence (P07550 whole entry): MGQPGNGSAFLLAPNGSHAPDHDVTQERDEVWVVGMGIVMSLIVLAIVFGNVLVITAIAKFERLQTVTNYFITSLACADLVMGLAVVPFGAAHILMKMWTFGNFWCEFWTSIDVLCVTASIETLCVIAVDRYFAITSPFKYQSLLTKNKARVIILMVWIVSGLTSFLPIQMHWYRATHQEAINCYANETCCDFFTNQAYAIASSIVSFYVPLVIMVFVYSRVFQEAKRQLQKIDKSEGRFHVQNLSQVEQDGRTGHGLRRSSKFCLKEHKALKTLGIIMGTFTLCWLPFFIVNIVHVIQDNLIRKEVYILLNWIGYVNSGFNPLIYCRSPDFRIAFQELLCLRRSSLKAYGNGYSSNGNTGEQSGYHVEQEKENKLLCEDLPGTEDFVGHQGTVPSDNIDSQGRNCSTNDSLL
T2 sequence (Q9TST5 whole entry): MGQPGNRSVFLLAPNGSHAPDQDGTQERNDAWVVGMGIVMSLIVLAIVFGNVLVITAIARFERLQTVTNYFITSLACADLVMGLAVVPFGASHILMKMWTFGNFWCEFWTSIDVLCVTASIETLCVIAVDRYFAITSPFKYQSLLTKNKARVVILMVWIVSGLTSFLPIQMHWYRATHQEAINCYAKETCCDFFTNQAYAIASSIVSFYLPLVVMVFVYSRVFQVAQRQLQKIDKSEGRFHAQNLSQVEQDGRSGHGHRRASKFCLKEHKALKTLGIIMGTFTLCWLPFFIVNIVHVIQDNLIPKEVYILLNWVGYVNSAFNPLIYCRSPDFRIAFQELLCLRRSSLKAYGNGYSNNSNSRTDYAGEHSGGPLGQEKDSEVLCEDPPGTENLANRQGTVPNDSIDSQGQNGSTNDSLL
T3 sequence (P18090 whole entry): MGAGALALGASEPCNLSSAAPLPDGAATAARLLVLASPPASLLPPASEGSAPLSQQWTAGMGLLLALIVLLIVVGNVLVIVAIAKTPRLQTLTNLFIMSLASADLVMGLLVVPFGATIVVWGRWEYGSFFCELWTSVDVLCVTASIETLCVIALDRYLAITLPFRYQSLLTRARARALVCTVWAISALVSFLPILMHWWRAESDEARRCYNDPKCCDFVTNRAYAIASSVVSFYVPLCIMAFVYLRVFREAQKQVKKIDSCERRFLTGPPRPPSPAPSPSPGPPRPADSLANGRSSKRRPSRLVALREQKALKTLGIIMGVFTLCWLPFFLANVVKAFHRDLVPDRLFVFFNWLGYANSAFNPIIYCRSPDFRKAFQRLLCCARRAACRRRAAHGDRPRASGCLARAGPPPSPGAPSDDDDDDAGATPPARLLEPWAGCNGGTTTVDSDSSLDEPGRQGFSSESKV

## CC(C)NCC(O)COc1ccc(CC(N)=O)cc1 (stereo not drawn) [Atenolol, atenolol]
[1]
  Ki: 21000 nM
[2]; [12]
  Ki: 5800 nM
Heart adenylate cyclase [3]
  Ki: 2700 nM

## COc1ccc(OC)c(C(O)C(C)NC(C)(C)C)c1 (stereo not drawn) [Butoxamine]
[1]
  Ki: 1530 nM
[4]
  β2/β1 potency ratio (Ki heart/Ki ciliary process): 9.8
[2]; [12]
  Ki: 1500 nM
Heart adenylate cyclase [3]
  Ki: 15000 nM
[5]
  Kd: 7030 nM

## CNC[C@H](O)c1ccc(O)c(O)c1 [Epinephrine]
[1]
  EC50: 2400 nM
[2]
  EC50: 1550 nM
Heart adenylate cyclase [6]
  Adenylate Cyclase Ka, Heart (G): 1.5 µM

## Cc1ccc(C(O)C(C)NC(C)C)cc1 (stereo not drawn) [H35/25, 1(4'-methylphenyl)-2-isopropyl amino propanol]
[7]; antagonists, inhibition of isoproterenol-stimulated activity, Table I column A, read-out: Adenylate Cyclase Ki, Ciliary Process Human (A)
  Ki: 740 nM
[7]; human ciliary process, Table 3
  beta2/beta1 Potency Ratio: 8.8
[7]; human ciliary process, Table 3, read-out: Ki for Isoproterenol-Stimulated Adenylate Cyclase
  Ki: 740 nM
[7]; inhibition of isoproterenol stimulation of human ciliary process adenylate cyclase, read-out: calculated inhibitory constant (Ki)
  Ki: 740 nM
[1]
  Ki: 700 nM
[2]
  Ki: 140 nM

## Cc1ccc(OCC(O)C(C)NC(C)C)c2c1CCC2 (stereo not drawn) [ICI 118,551]
[1]
  Ki: 3 nM
Heart adenylate cyclase [3]
  Ki: 1760 nM
[8]; rabbit, in vivo
  Ocular irritative effects: little ocular irritative effects
[8]; topical 50 μl of a 1% solution, 6 hours, N=12 double blind crossover
  Decrease in intraocular pressure compared with timolol: both a greater decrease as well as a more prolonged decrease in intraocular pressure than did timolol
[9]
  IC50 for blocking isoproterenol-induced increase in heart rate: 140 micrograms/kg

## CC(C)(C)NCC(O)CON=C1c2ccccc2-c2ccccc21 (stereo not drawn) [IPS 339, (t-butyl-amino 3-ol-2-propyl) oximino-9 fluorene, hydrochloride]
[2]
  Ki: 1.9 nM
Heart adenylate cyclase [3]
  Ki: 1120 nM
[10]
  Intraocular pressure above normal: decreased significantly
[8]; [13]
  Change of IOP in the contralateral eye: significant decrease in IOP in the contralateral eye
  Magnitude of contralateral IOP effect compared with timolol: somewhat less for IPS 339 than for timolol
[8]; [14]
  Change of IOP in ipsilateral eyes compared to predrug readings: significant decrease in IOP in ipsilateral eyes
[8]; 0.5% topical, at 3 hours
  Extent of IOP decrease compared with timolol: significantly more than that caused by timolol
[8]; rabbit, in vivo
  Pupillary diameter and overt ocular toxicity: no significant changes in pupillary diameter nor overt ocular toxicity
[5]
  Kd: 10 nM

## CC(C)NCC(O)c1ccc(O)c(O)c1 (stereo not drawn) [Isoproterenol]
[2]
  EC50: 140 nM
[11]
  Maximal stimulation, of the stimulation seen in the ciliary process: 15%
Iris adenylate cyclase
  Maximal stimulation, of that seen in the ciliary process: 22%

## NC[C@H](O)c1ccc(O)c(O)c1 [Norepinephrine]
[1]
  EC50: 29000 nM
[2]; agonists, Table I, read-out: Adenylate Cyclase Ka, Choroid Plexus (C)
  EC50: 25000 nM
[5]
  Kd: 820 nM

## CC(=O)Nc1ccc(OCC(O)CNC(C)C)cc1 (stereo not drawn) [Practolol, practolol]
[1]
  Ki: 39000 nM
[2]; [12]
  Ki: 8900 nM
Heart adenylate cyclase [3]
  Ki: 5500 nM
[5]
  Kd: 1100 nM

## CC(C)(C)NC[C@H](O)COc1nsnc1N1CCOCC1 [Timolol, timolol]
[1]
  Ki: 6.4 nM
Heart adenylate cyclase [3]
  Ki: 20 nM
[8]; [13]
  Change of IOP in the contralateral eye: significant decrease in IOP in the contralateral eye
[8]; [14]
  Change of IOP in ipsilateral eyes compared to predrug readings: significant decrease in IOP in ipsilateral eyes
[8]; 0.5% topical, 1 hour after application
  Change of IOP in ipsilateral eyes compared to predrug readings: also caused a significant decrease at 1 hour
[8]; rabbit, in vivo
  Pupillary diameter and overt ocular toxicity: no significant changes in pupillary diameter nor overt ocular toxicity
[9]
  IC50 for blocking isoproterenol-induced increase in heart rate: 2.2 micrograms/kg
